Values after ≈ are worked out from the molar mass of the structure shown. Like-named read-outs stand apart in the source and are kept apart here.
Experiments:
DH5α E. coli [1] = assay: MIC against DH5α E. coli; assay type: cell-based; settings: Escherichia coli, no additional antimicrobial; MICs in table limited to […]; read-out: Minimum inhibitory concentration against DH5α E. coli
DH5α E. coli [2] = tested on: DH5α E. coli; set-up: method as in PMID 15858645; settings: free bases, previously reported data; cited from earlier work
Escherichia coli = settings: administered with ½ MIC of C8LE; earlier work, no reference given; cited from earlier work
K12 E. coli = assay: MIC against K12 E. coli; assay type: cell-based; settings: Escherichia coli
[3] = Planar bilayer voltage clamp; settings: 70 mV, KCl 450 mM, HEPES 10 mM, pH 7
Source text: This compound was therefore converted into its bis(methiodide) to form C11LE•2MeI (8). It is clear from the trace shown that only spiking behavior was observed and a large opening eventually emerged. […] The formation of a large opening in the membrane comports with the expectation of increased permeability. Such an opening is also in accord with the observation (see above) of depolarization of bacterial membranes.
Figure 18 Planar bilayer voltage clamp trace for C11LE•2MeI (8) at 70 mV. Axes: Y = millivolts and X axis = 10 s per section. Conditions: soybean asolectin membrane, KCl (450 mm) buffer solution (HEPES, 10 mm, pH 7).
The planar bilayer experiments were conducted as described previously.

S. aureus 1199B [4] = assay: Growth curves; assay type: cell-based, Staphylococcus aureus; settings: ½ MIC, OD600 over 24 h
Experimental: In the studies above, 1–6 were administered at ½ MIC concentrations. At these concentrations, no toxic effect of the compound on cells was anticipated. In order to confirm the effect of compound concentration on S. aureus viability, growth curves were conducted for each compound. In all cases, S. aureus alone was used as control. For the three C10LE compounds (1–3), 32 µM and 64 µM concentrations of norfloxacin were added to the norfloxacin-resistant S. aureus strain as an additional control. The concentration ranges for each of compounds 1–6 varied with their potencies.
The determination of growth curves was performed against S. aureus 1199B, which is norfloxacin resistant at 32 µM. Norfloxacin was used at 64 µM as a control. The compounds tested were 1–6, C10LE and C12LE and their hydrochlorides and methiodides. S. aureus 1199B was cultured overnight from a single CFU and reduced to OD600 = 0.55 before use. Samples were prepared in LB media to which was added either the norfloxacin control or the combination of norfloxacin and one of the compounds C10LE (1), C10LE•2HCl (2), C10LE•2MeI (3), C12LE (4), C12LE•2HCl (5), or C12LE•2MeI (6). Dimethylsulfoxide (DMSO) was used to solubilize the lariat ether derivative, when necessary, but its concentration was never allowed to exceed 0.5% (v/v) in all experiments. […] The absorbance of each sample (600 nm) was recorded every quarter hour for 24 h.

Tet^R E. coli = assay: MIC against Tet^R E. coli; assay type: cell-based
[5] = biological target: T1, NorA efflux pumps in S. aureus 1199B (Staphylococcus aureus, UniProt P0A0J7); assay: Efflux pump inhibition (EthBr accumulation); assay type: cell-based; set-up: Efflux pump inhibition (increase in EthBr fluorescence): dose or concentration left out as unconfirmed; settings: […] µM compound
T1 construct: Increase in EthBr fluorescence observed by its accumulation in S. aureus 1199B cytosol; endogenous in cells; host or cells: Staphylococcus aureus 1199B (whole bacteria)
Source text: An important reason for the choice of S. aureus 1199B for study is that its resistance to norfloxacin is known to result from the presence of the Nor A efflux pump. Efflux pumps require regulated ion balance to function so that exogeneous substances such as antibacterials can effectively be ejected. Ethidium bromide (EthBr) can penetrate bacteria and is detectable by its fluorescence. To the extent that ion homeostasis is disrupted, ion balance is deregulated, and efflux pump function is compromised or inhibited.
Experimental details have been reported in [44].

S. aureus 1199B [6] = assay: MIC against S. aureus 1199B; assay type: cell-based, Staphylococcus aureus; settings: MHII media, 90% growth inhibition
[7] = Turbidimetric solubility limit in MHII or PBS; assay type: physicochemical; settings: DMSO ≤0.5%
S. aureus [8] = assay: MIC against S. aureus under various pH and media conditions; assay type: cell-based, Staphylococcus aureus
[9] = Dynamic light scattering of C12LE aggregation; assay type: physicochemical; settings: water, in the presence of the antimicrobial or C12LE alone
Experimental: It is known that dialkyldiazacrowns form stable aggregates in aqueous solution [57, 62]. It was hypothesized that complexation between antimicrobials and macrocycles would alter or prevent the ability of the complex to form aggregates. […] Indeed, the particle sizes observed when chlortetracycline is present was almost indistinguishable from particle formation by C12LE (4) alone.
Measurements were performed on a Brookhaven Instruments Corp. ZetaPALS instrument at 25 °C using a 660 nm laser and correlating scattering at 90°. Samples were prepared by initially dissolving the amphiphile in filtered DMSO obtained from ThermoFisher. Next, they were diluted into 1× PBS such that DMSO was fixed at 0.5% in 15 mL sterile conical tubes. 10× PBS was obtained commercially, then diluted 10-fold in MQ H2O. The mixture was vortexed and incubated at room temperature for 2 h, then transferred to a clean quartz cuvette and equilibrated in the instrument for 10 min at 25 °C. Ten measurements consisting of 2 min runs were made on each sample. The average effective diameter was calculated with standard error reported for at least three trials.

S. aureus [10] = assay: Membrane depolarization by DiBAC4(3) fluorescence; assay type: cell-based, Staphylococcus aureus; settings: compound at ½ MIC
Experimental: Disruption of ion homeostasis by 1–6 should be apparent in the associated membrane depolarization. […] The dye is readily absorbed by bacteria owing to the negative internal potential. Disruption of ion homeostasis will affect both proton and potassium cation regulation. The internalized, self-quenched dye will be released and increased fluorescence will be observed.
Two types of experiments were performed to assess membrane depolarization. […] If ion homeostasis is affected by the presence of any of these compounds, the fluorescent response should increase as the lariat ether concentration increased.
A second series of experiments was performed to determine the relationship of disrupted ion homeostasis, as reflected in membrane depolarization with cellular vitality (Figure 17). […] Alamar blue (see above) was used to determine cell viability. No depolarization was apparent in the S. aureus control in the absence of a lariat ether or lariat ether derivative. Depolarization was greatest for C10LE•MeI (3). […] We note that the MIC values for S. aureus observed for 2, 3, 5, and 6 were similar.
The membrane depolarization study was conducted as described in [48].

T1 sequence (P0A0J7 whole entry): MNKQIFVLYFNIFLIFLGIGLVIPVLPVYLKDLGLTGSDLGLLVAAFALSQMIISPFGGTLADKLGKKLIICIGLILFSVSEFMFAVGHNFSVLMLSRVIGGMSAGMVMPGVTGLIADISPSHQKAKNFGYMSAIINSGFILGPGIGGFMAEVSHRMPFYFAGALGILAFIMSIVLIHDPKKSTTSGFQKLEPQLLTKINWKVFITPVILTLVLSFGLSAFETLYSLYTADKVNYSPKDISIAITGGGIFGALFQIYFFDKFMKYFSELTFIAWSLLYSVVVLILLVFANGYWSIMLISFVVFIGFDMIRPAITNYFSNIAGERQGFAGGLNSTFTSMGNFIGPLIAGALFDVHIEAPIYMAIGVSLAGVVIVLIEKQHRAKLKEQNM

CCCCCCCCN1CCOCCOCCN(CCCCCCCC)CCOCCOCC1 [C8LE (7)]
MIC (DH5α E. coli [1]): 206 µM (≈ 100 µg/mL) | Minimum inhibitory concentration against DH5α E. coli (DH5α E. coli [2]): >128 µM | Fold increase in potency of rifampicin against E. coli (Escherichia coli): 20 fold | MIC (K12 E. coli; read-out: MIC K12 E. coli, MHII media, 90% growth inhibition): 100 µM (≈ 48.7 µg/mL)

CCCCCCCCCCC[N+]1(C)CCOCCOCC[N+](C)(CCCCCCCCCCC)CCOCCOCC1 (stereo not drawn) [C11LE•2MeI (8)]
Channel formation in planar bilayer [3]: does not form stable channels

CCCCCCCCCCCCN1CCOCCOCCN(CCCCCCCCCCCC)CCOCCOCC1 [C12LE (4), N,N′-Di-n-dodecyl-4-13-diaza-18-crown-6]
Effect on bacterial growth (growth curves) (S. aureus 1199B [4]): growth effects were observed at ½ MIC and lower | MIC (Tet^R E. coli; Escherichia coli, read-out: MIC Tet^R E. coli): > 64 µM | MIC Tet^R E. coli (Tet^R E. coli; MHII media, 90% growth inhibition): inactive | MIC (DH5α E. coli [1]): > 128 µM | melting point: 141 to 144 °C | Efflux pump inhibition (increase in EthBr fluorescence) [5]: most potent efflux pump inhibition | MIC S. aureus 1199B (S. aureus 1199B [6]): 32 µM (≈ 19.2 µg/mL) | solubility at 2 h ([7]; Mueller Hinton II, pH 7.3, 2 h at 37 °C, read-out: Solubility limit in MHII): 16 µM (≈ 9.58 µg/mL) | solubility at 2 h ([7]; phosphate-buffered saline, 2 h at 37 °C, read-out: Solubility limit in PBS): 16 µM (≈ 9.58 µg/mL) | MIC (S. aureus [8]; MHII, pH 6.4, read-out: MIC S. aureus, MHII pH 6.4): >16 µM | MIC (S. aureus [8]; MHII, pH 7.4, read-out: MIC S. aureus, MHII pH 7.4): >32 µM | Change in MIC as the pH was increased from 6.4 to 8.4 (S. aureus [8]; S. aureus, Mueller Hinton medium): changes in MIC were observed | MIC (S. aureus [8]; Staphylococcus aureus, pH 8.4, MHII, pH 8.4, read-out: MIC S. aureus, MHII pH 8.4): > 64 µM | Slope of C12LE aggregation (DLS particle size) [9]: 2.95 | Membrane depolarization (DiBAC4(3) fluorescence) (S. aureus [10]): failed to show any significant evidence of membrane depolarization | MIC (K12 E. coli; MHII media, 90% growth inhibition, read-out: MIC K12 E. coli): > 128 µM

From article PMC10603992, “Antimicrobial and Adjuvant Potencies of Di-n-alkyl Substituted Diazalariat Ethers” (Antibiotics, 2023)
